# According to patent publication US5470877A, “Uses of perillic acid methyl ester” (Wisconsin Alumni Research Foundation, priority 1994, dated 1995):
# Where “and” joins values, the source holds several entries; their conditions need not be identical. Equal entries are not always repeated.
# Legend:
# HT29 cells = experiment: Inhibition of HT29 colon adenocarcinoma cell growth/proliferation; assay type: cell-based, human; settings: for Rank order, inhibition of HT-29 tumor cell proliferation: 1 = greatest inhibition, 5 = least inhibition
# Protocol: (§1) We examined the effect of several of the terpenes on certain types of cell growth. […] Additionally, growth of HT29 (human colon adenocarcinoma) cells was inhibited by 80% by 1 mM perillyl alcohol.
# [1] = tested on: DMBA-induced rat mammary carcinomas; experiment: Regression of DMBA-induced mammary carcinomas, pair-feeding study; assay type: in vivo, Wistar-Furth rat
# Protocol: We used Wistar-Furth female rats for in vivo studies. Wistar-Furth female rats were obtained from Harlan Sprague-Dawley, Inc., (Madison, Wis.). All rats, arriving at 43-48 days of age, were housed at four rats per cage in wire-bottom metal cages and all were maintained with a light/dark cycle of 12 hours. Rats were provided Teklad Lab blox chow and acidified water ad libitum.
# After one week of acclimation, the carcinogen DMBA was administered to the rats, which were 50-55 days old at this point. The DMBA was dissolved in a stock solution of 20 mg DMBA/ml sesame oil, heated and allowed to cool to room temperature before administration. DMBA (Eastman Kodak, Rochester, N.Y.) was given as a single gastric intubation of 50 mg DMBA/kg rat body weight.
# In the pair-feeding study, a group of 70 mammals was treated with DMBA. Beginning four weeks post carcinogen administration, mammals were weighed and palpated weekly. Upon palpation of the first mammary carcinoma (diameter≥3 mm), mammals were randomly assigned to control or 2.5% (w/w) perillyl alcohol diet and pair-fed.
# Perillyl alcohol (>96% pure by GC analysis, Aldrich, Milwaukee, Wis.) and Teklad 4% mouse/rat diet meal were thoroughly mixed and stored at -20° C. Fresh diets were made every 7-10 days. All mammals were provided fresh diet daily to minimize evaporation of the monoterpenes. For pair-feeding, the quantity of diet consumed by the monoterpene-fed mammals was measured every 24 hours and the assigned partner was pair-fed accordingly.
# In the pair-feeding study, all palpable mammary carcinomas were classified as either "primary" tumors (i.e, the first tumor(s) palpated with a minimum diameter of 3 mm) or "secondary" tumors (i.e. a palpable tumor arising after initial diet assignment). At diet assignment, some mammals had more than one primary tumor. All carcinogen-exposed mammals not bearing a first palpable tumor by week 15 post-carcinogen were removed from the experiment. Complete regression of a tumor was defined as non-palpability for a minimum of three consecutive weeks. All mammals in the pair-feeding study were followed for a minimum of 10 weeks post-diet assignment for tumor growth or regression at primary tumor sites and all other mammary glands. The rats were necropsied if moribund. Complete necropsies were performed on all rats at the termination of the study. Greater than 95% of tumors remaining at the autopsy date were diagnosed as mammary carcinomas based on gross and histopathological criteria.
# [2] = Chemistry panel and toxicity monitoring in human subjects; settings: 100 mg/kg d-limonene
# Protocol: The custard consisted of dry unflavored custard mix, cold water, cold whole milk, and orange oil. The components were blended at room temperature and then refrigerated for at least 30 minutes prior to ingestion by the subjects. Subjects ingested the orange oil-containing mixture over 2-10 minutes. […] One subject had additional blood draws for metabolite analysis at 1, 2, and 8 h post-ingestion. The chemistry panel consisted of: BUN, creatinine, calcium, magnesium, phosphorous, uric acid, total cholesterol, total protein, albumin, total bilirubin, y-glutamyl transpeptidase, alkaline phosphatase, aspartate aminotransferase, and lactate dehydrogenase. Subjects were monitored for toxicity for one week.
# [3] = Plasma metabolite identification and quantitation in rats; assay type: in vivo, Wistar-Furth rat; settings: rat, in vivo
# Protocol: Control animals received oil alone. At the chosen time points, rats were anesthetized with ether and blood was collected into heparinized tubes (Heparin (Sigma, Grade II), at 20 mg/ml in 0.9% saline). Plasma was removed following centrifugation and stored at -20° C.
# For quantitation of chronic plasma metabolite levels of perillyl alcohol, female WF rats were housed individually and fed fresh diet daily. The afternoon before blood collection, all rats were given approximately 20 grams of the appropriate diet and allowed to eat ad. libitum for 18 hours. Food consumption data was determined the next morning and the rats were bled within 2 hours following food removal.
# Briefly, 5 μl of a 10 mM solution of perillaldehyde was added to 50 μl plasma as an internal standard for quantitation. The plasma was mixed with an equal volume of n-butanol:acetonitrile (1:1, v/v), after which another volume of saturated potassium phosphate was added. After vortexing, the samples were centrifuged and the organic layer removed from the top.
# Plasma extracts were analyzed using a Hewlett-Packard 5891 gas chromatograph equipped with a flame-ionization detector or a Hewlett-Packard 5890 chromatograph equipped with a 5971A mass-selective detector, both with 30 m Supelco SPB-5 columns. The temperature program was 90° C. for 4 minutes, increasing by 10° C./minute, followed by 15 minutes at 275° C. The split ratio was 1:10 and the linear velocity was 1.1 ml/minute. Standard curves were generated by adding 5 μl rat plasma. Standards were then extracted and analyzed by capillary gas chromatography. The ratio of the terpene peak area/perillaldehyde peak area versus the concentration of terpene in the sample was plotted.
# [4] = in vivo; cited from earlier work
# [5] = in vivo
# Protocol: Subjects: The subjects were five females and two males, median age of 32 years (range 23-55) and without illness or laboratory abnormalities.
# The custard consisted of dry unflavored custard mix, cold water, cold whole milk, and orange oil. The components were blended at room temperature and then refrigerated for at least 30 minutes prior to ingestion by the subjects. Subjects ingested the orange oil-containing mixture over 2-10 minutes. […] The chemistry panel consisted of: BUN, creatinine, calcium, magnesium, phosphorous, uric acid, total cholesterol, total protein, albumin, total bilirubin, y-glutamyl transpeptidase, alkaline phosphatase, aspartate aminotransferase, and lactate dehydrogenase. Subjects were monitored for toxicity for one week.
# 21-26 kDa proteins [6] = experiment: Protein isoprenylation inhibition in NIH3T3 cells (SDS-PAGE fluorography); assay type: cell-based, mouse; settings: for isoprenylation of the 21-26-kDa bands, % of the control: NIH3T3, gel slicing and scintillation counting
# Protocol: "Isoprenylation" is the addition of a multiple of the 5 carbon isoprene unit to a protein. Our experiments in isoprenylation are reported at Crowell, et al. 1991, J. Biol. Chem. 266:17679-17685. To test whether a specific monoterpene affects isoprenylation of proteins in cells, […] were incubated with a radioactive isoprene precursor and 0-5 mM of the test monoterpene and then subjected to SDS-PAGE. Because they carried a radioactive label, isoprenylated proteins were visualized by fluorography. As a control, cells were incubated without the monoterpene.
# Cells were harvested after trypsin treatment, washed twice with phosphate-buffered saline, suspended in electrophoresis sample buffer (Laemmli, U.K., 1970, Nature 227:680-685), and either analyzed immediately or stored at -20° C. Whole cell extracts were analyzed by SDS-PAGE on 16-cm×18-cm×0.75-mm gels by the method of Laemmli (supra). The acrylamide concentrations were 5% for the stacking gel and 12% for the separating gel. Gels were stained with Coomassie Brilliant Blue, equilibrated for 20 min in Amplify (Amersham Corp.) fluorographic reagent, dried under vacuum at 65° C., and exposed to preflashed Kodak X-Omat AR film as described by Laskey and Mills (1975, Eur. J. Biochem, 56:335-341). Some fluorograms were analyzed further by densitometry. Where indicated, gels were sliced, dissolved at 50° C. for 3 hours in 0.5 ml of water+0.5 ml of Solvable (Amersham), and then analyzed by scintillation spectrometry in 10 ml of Atom light (Amersham) mixture. Protein content was measured by the method of Lowry, et al. (1951, J. Biol. Chem. 193:265-275).
# FIG. 1 depicts the structures of certain monoterpenes.
# The degree of isoprenylation was evaluated by the amount of labeled protein present in the 21-26 kDa range, as evidenced by fluorography.
# [7] = rat, in vivo; cited from earlier work
# 21-26 kDa proteins [8] = experiment: Protein isoprenylation inhibition in M600B human mammary epithelial cells
# Protocol: To test whether a specific monoterpene affects isoprenylation of proteins in cells, cell extracts were incubated with a radioactive isoprene precursor and 0-5 mM of the test monoterpene and then subjected to SDS-PAGE. Because they carried a radioactive label, isoprenylated proteins were visualized by fluorography. As a control, cells were incubated without the monoterpene.
# For both isoprenylation and cell growth assays, the monoterpenes were mixed with prewarmed (37° C.) medium containing 10% calf serum, and then the monoterpene-containing medium was added to cells. The relative effects of various monoterpenes on protein isoprenylation were compared by comparison of the relative intensity of bands on fluorograms from [^14 C]-mevalonate-labelled cells treated with each monoterpene.
# Samples from each cell line were then analyzed on the same gel.
# DMBA rat mammary tumor = experiment: Dietary perillic acid methyl ester-induced rat mammary tumor regression; assay type: in vivo, Wistar-Furth rat; settings: 0.5% perillic acid methyl ester diet, individual rat tumors
# Protocol: (§2) Inbred female Wistar-Furth rats were given 50 mg/kg DMBA at 50-55 days of age. Upon development of a mammary tumor with the largest diameter≥10 mm, the rat was assigned to 0.5% perillic acid methyl ester diet and fed ad libitum. The 0.5% perillic acid methyl ester diet (weight compound/weight ground Teklad rat/mouse 4% meal/chow) was prepared fresh every 7-10 days. Fresh diet was given to rats daily. All rats were weighed and palpated weekly. The study was terminated at 6 weeks after initial diet administration.
# rat mammary carcinoma = experiment: Comparison of dietary perillyl alcohol and perillic acid methyl ester as inducers of rat mammary carcinoma regression; assay type: in vivo, Wistar-Furth rat; settings: 0.5% PAME diet
# Protocol: as §2, with “administration. The following tumor regression data was acquired:” for “administration.”
# We compared the effects of PAME and POH in terms of their ability to regress rat mammary carcinomas. Table 8 records our comparison. In summary, a 0.5% PAME diet was effective, while a 0.5% POH diet was only 10% effective. Diets of 2% POH were roughly 64-70% effective. While 2% POH is tolerated by a mammal, on a practical level PAME is preferred because a lower dose is sufficient.
# M600B cells = experiment: M600B cell growth inhibition (FIG. 4); assay type: cell-based; settings: M600B (human) cells
# Protocol: (§3) NIH3T3 (mouse embryo) cells were obtained from the American Type Culture Collection and were grown in Dulbecco's modified Eagle's medium supplemented with 10% calf serum. M600B immortalized human mammary epithelial cells (Stampfer, M.R., 1985, J. Tissue Culture Methods 9:107-115) were, obtained from Dr. Martha Stampfer and were grown in supplemented HCDB 170 medium (Hammond, et al. (1984) Proc. Natl. Acad. Sci U.S.A. 81:5435-5439), as described previously (Stampfer, et al. (1985) Proc. Natl. Acad. Sci U.S.A. 82:2394-2398; Eldridge, et al. (1989) Cancer Res. 49:4326-4331).
# (§4) All cells were maintained in 100-mm dishes at 37° C. in a humidified 5% CO2 atmosphere. Viable cells were distinguished from nonviable cells by counting azure II/methylene blue-stained colonies 10 days after the cells were plated at a density of 100 cells per dish. Trypan blue exclusion was measured by incubating cells for 1 min with one drop of trypan blue per 10 ml of cells. Viable (colorless) and nonviable (blue) cells were then counted on a hemocytometer.
# as §1
# NIH3T3 cells = experiment: NIH3T3 cell growth inhibition (FIG. 3); assay type: cell-based, mouse; settings: NIH3T3 (murine) cells
# Protocol: as §3, §4, §1
# [9] = 10% limonene diet or 2.5% POH diet
# [10] = 6 weeks, second comparison, listed as PAME
smiles,measurement,setting,value
"C=C(C)C1CC=C(C=O)CC1 (stereo not drawn) [Perillylaldehyde, reference compound]","Rank order, inhibition of HT-29 tumor cell proliferation",HT29 cells,3
C=C(C)[C@H]1CC=C(C)CC1 [limonene],Primary carcinoma complete regression (tumors regressed / tumors),[1]; [9],19/28
same,Primary carcinoma regression (%),[1]; [9],68%
same,Secondary carcinoma regression (%),[1]; [9],63%
same,Secondary carcinoma regression (tumors regressed / tumors),[1]; [9],17/27
same,Secondary carcinomas/rat,[1]; [9],1.08
same,development of secondary carcinomas,[1]; after initial diet assignment,number of secondary carcinomas was higher in the limonene-fed mammals
same,Time to Regress (wks),"[1]; primary carcinoma, footnote: Kaplan-Meier estimate of time when 25% regressed",3.25 wks
same,gradeable toxicity,[2],No gradeable toxicity was encountered
same,mM DHPAME,[3],trace
same,metabolism at 4 hours,[3],equal amounts of perillic and dihydroperillic acid
same,parent in plasma at 24 hours,[3],no limonene was detectable in the plasma
same,time parent found in plasma,[3],up to 4 hours
same,Total,[3]; 30240 min,0.19 mM
same,mM DHPA,[3]; 30240 min,0.06 ± 0.01 mM
same,mM DHPAME,[3]; 30240 min,0.01 ± 0.00 mM
same,mM LIM/POH,[3]; 30240 min,0 mM
same,mM PA,[3]; 30240 min,0.10 ± 0.02 mM
same,mM PAME,[3]; 30240 min,0.02 ± 0.01 mM
same,Total,[3]; 50400 min,0.28 mM
same,mM DHPA,[3]; 50400 min,0.09 ± 0.02 mM
same,mM DHPAME,[3]; 50400 min,0.01 ± 0.00 mM
same,mM LIM/POH,[3]; 50400 min,0 mM
same,mM PA,[3]; 50400 min,0.14 ± 0.03 mM
same,mM PAME,[3]; 50400 min,0.04 ± 0.01 mM
same,Total,[3]; 100800 min,0.27 mM
same,mM DHPA,[3]; 100800 min,0.12 ± 0.01 mM
same,mM LIM/POH,[3]; 100800 min,0 mM
same,mM PA,[3]; 100800 min,0.13 ± 0.01 mM
same,mM PAME,[3]; 100800 min,0.02 ± 0.00 mM
same,concentration,"[3]; po, 1000 mg/kg, 4 h",90 ± 20 µM
same,side-effects,[4],not without some side-effects
same,time of highest metabolite concentrations,[5]; human,4 h
same,identity of abundant human metabolite H2,[5],"limonene-1,2-diol"
same,metabolite concentrations at 24 h (8 h in one subject),[5],lower than those at the 4 h time point
same,"Rank order, inhibition of HT-29 tumor cell proliferation",HT29 cells,5
same,"isoprenylation of the 21-26-kDa bands, % of the control",21-26 kDa proteins [6]; 0.5 mM limonene,~ 50 % of the control
same,"intensity of the 66-, 46-, and 17-kDa bands",21-26 kDa proteins [6]; 0.5 mM or 5 mM limonene,not different from that of the control
same,"isoprenylation of the 21-26-kDa bands, % of the control",21-26 kDa proteins [6]; 5 mM limonene,~ 25 % of the control
same,time of highest concentrations of limonene-derived material,[7],2 to 12 h
same,intensity of the 21-26 kDa bands,21-26 kDa proteins [8]; 5 mM limonene,marked decrease
same,concentration required for significant inhibition of protein isoprenylation,21-26 kDa proteins [8]; dose responsive,at least 1 mM
C=C(C)C1CC=C(C(=O)OC)CC1 (stereo not drawn) [perillic acid methyl ester],time (of tumor size change),DMBA rat mammary tumor,6 wks and 5 wks and 4 wks and 3 wks and 2 wks
same,potency in cell proliferation tests versus perillyl alcohol,HT29 cells,"more potent in cell proliferation, tests than perillyl alcohol"
same,"Rank order, inhibition of HT-29 tumor cell proliferation",HT29 cells,1
same,IC50,"HT29 cells; Homo sapiens, HT-29, read-out: IC50 HT29 tumor cell proliferation",50 µM
same,effectiveness of diet,rat mammary carcinoma,effective
same,no regression (tumors),"rat mammary carcinoma; 6 weeks, second comparison",10 of 19
same,no response,"rat mammary carcinoma; 6 weeks, second comparison",1
same,partial regression >1/2 original diameter (%),"rat mammary carcinoma; 6 weeks, second comparison",47%
same,partial regression >1/2 original diameter (tumors),"rat mammary carcinoma; 6 weeks, second comparison",9 of 19
same,small regression response,"rat mammary carcinoma; 6 weeks, second comparison",4 of 19
same,some growth of tumor,"rat mammary carcinoma; 6 weeks, second comparison",5 of 19
same,no regression (tumors),rat mammary carcinoma; [10],10/19
same,no response,rat mammary carcinoma; [10],1/19
same,partial regression >1/2 original diameter (tumors),rat mammary carcinoma; [10],9/19
same,small regression response,rat mammary carcinoma; [10],4/19
same,some growth of tumor,rat mammary carcinoma; [10],5/19
C=C(C)[C@@H]1CC=C(C(=O)O)CC1 [perillic acid],inhibition of cell growth,M600B cells,significantly inhibited cell growth in a dose-dependent manner
same,"Rank order, inhibition of HT-29 tumor cell proliferation",HT29 cells,4
same,inhibition of cell growth,NIH3T3 cells,significantly inhibited cell growth in a dose-dependent manner
same,inhibition of isoprenylation in all cases examined,21-26 kDa proteins [6]; all cell types examined,inhibition of isoprenylation
same,isoprenylation of 21-26 kDa proteins,21-26 kDa proteins [8]; 5 mM,inhibited significantly
